{"source": "patent US4430355A", "about": "“Condensed isothiazolo-3 (2H)-one-1-1-dioxides” (priority 1977, dated 1984)", "key": {"[1]": {"assay": "Determination of the threshold concentration (taste testers, Schutz and Pilgrim method)", "set-up": "key: mean of 5 testers; 0 = not sweet, 3 = very sweet", "protocol": "From novel compounds A, B, C, D, E and F and from known comparison compounds U, V and W aqueous solutions in concentrations of 1:12500, 1:25000, 1:50000, 1:100000 and 1:200000 were prepared and evaluated by each of 5 taste testers according to the following criteria: Very sweet (=3 points); medium sweet (=2 points), slightly sweet (=1 point) and not sweet (=0 point). The tests were carried out according to the method of H. G. Schutz and F. J. Pilgrim [Food Research 22, 206 (1957)]. The dilution with perceptible sweetness was defined as the concentration at which the average value reached the evaluation points 1.0 or higher."}, "[2]": {"assay": "Determination of the relative sweetening power in comparison to saccharose (taste testers, 3% saccharose solution)", "text": "The relative sweetening power (often also defined as degree of sweetness) of sweetening agents in comparison to saccharose (cane sugar) varies with the concentrations within wide limits. Thus, in the usual concentrations (corresponding to a 2-10% solution of saccharose) the relative sweetening power of saccharin varies from 200 to 700. Therefore, for the determination of the relative sweetening power of the above-mentioned compounds a 3% aqueous solution of saccharose was always used for comparison.\nThe further determination of the relative sweetening power was continued according to the methods of R. Pauli [Chemiker Zeitung 44, 744 (1920)] and T. Paul [Chemiker-Zeitung 45 38 (1921)]. Each test series was tested by 4 taste testers."}, "[3]": {"assay": "Evaluation of taste quality", "text": "They often have a side-taste or after-taste. Novel compounds A to F are, however, characterized by a very pure sweet taste."}, "mouse": {"system": "mouse", "assay": "Orienting acute toxicity, oral, mouse", "assay_type": "in vivo", "conditions": "6 animals", "protocol": "The acute toxicity was determined after oral administration to male and female mice and to male and female rats. The substances were given in an aqueous solution or as a suspension in tylose."}, "[4]": {"system": "Salmonella typhimurium TA 98, TA 100, TA 1535, TA 1537, TA 1538", "assay": "AMES-system, test for mutagenic effects, Salmonella typhimurium", "assay_type": "cell-based", "protocol": "Compounds C and D were tested in the AMES-system [Mutation Research 31, 347-364 (1975)] with regard to their mutagenic properties. In order to show the whole spectrum of induced molecular DNA-damages (base substitutions, frame-shift mutations, deletions) the auxotrophic bacterial strains Salmonella typhimurium TA 98, TA 100 and Escherichia coli WP 2 (P) were used as genetic indicators. The strains Salmonella typhimurium TA 1535, TA 1537 and TA 1538 were additionally used in the test of compound C.\n(§1) The test for all microorganisms were carried out in a way such that the influence of a microsomal enzyme system, together with the corresponding co-factors, could be tested with regard to the test substance, and to determine the differences in enzyme induction. The tests were performed without an activating system and in the presence of an activating system. For the in vitro-activation, S-9 supernatants (fraction of the endoplasmatic reticulum) of normal, i.e. not pre-treated rats and of Aroclor 1254 (500 mg/kg) induced rats were used. From the S-9 induced fraction, 3 different concentration levels were tested.\n(§2) The substance concentrations of compound C were 0.1 and 0.5 mgm/plate and the concentrations of compound D were 5, 10, 15 and 20 mg/plate."}, "[5]": {"system": "Escherichia coli WP 2 (P)", "assay": "AMES-system, test for mutagenic effects, Escherichia coli", "assay_type": "cell-based", "protocol": "In order to show the whole spectrum of induced molecular DNA-damages (base substitutions, frame-shift mutations, deletions) the auxotrophic bacterial strains Salmonella typhimurium TA 98, TA 100 and Escherichia coli WP 2 (P) were used as genetic indicators.\nas §1, with “For the in vitro-activation, S-9 supernatants (fraction of the endoplasmatic reticulum) of normal, i.e. not pre-treated rats and of Aroclor 1254 (500 mg/kg) induced rats were used.” left out"}, "microorganism growth": {"system": "microorganism growth", "assay": "Series dilution essay, inhibition of the microorganism growth", "assay_type": "cell-based", "conditions": "highest dosages (C 0.5 mgm/plate, D 20 mg/plate)", "protocol": "as §2"}, "[6]": {"conditions": "value given on page 6 of German Offenlegungsschrift 2,534,689; cited from earlier work"}, "[7]": {"conditions": "higher dosage levels; cited from earlier work"}, "[8]": {"conditions": "compared with 3% aqueous solution of saccharose"}}, "note": "Where two headings read alike, the source gives them in different places.", "data": [{"compound": "Cc1cc2c(o1)S(=O)(=O)NC2=O", "note": "[A, 5-Methyl-furo[3,2-d]isothiazole-3-(2H)-one-1,1-dioxide]", "values": [{"measurement": "Average Value of Evaluation Points", "setting": "[1]; concentration 1:12500", "value": 1.4}, {"measurement": "Average Value of Evaluation Points", "setting": "[1]; concentration 1:25000", "value": 0.2}, {"measurement": "Relative Sweetening Power (Saccharose = 1)", "setting": "[2]; [8]", "value": 150}, {"measurement": "taste quality compared with saccharose (cane sugar)", "setting": "[3]", "value": "achieve the taste quality of saccharose"}, {"measurement": "Animals which died within the observation time, 1 day", "setting": "mouse; 1000 mgm/kg oral", "value": 0, "unit": "animals"}, {"measurement": "Animals which died within the observation time, 7 days", "setting": "mouse; 1000 mgm/kg oral", "value": 0, "unit": "animals"}]}, {"compound": "Cc1cc2c(s1)S(=O)(=O)NC2=O.[Ca]", "note": "[D, 5-Methyl-thieno[3,2-d]isothiazole-3(2H)-one-1,1-dioxide calcium salt]", "values": [{"measurement": "Average Value of Evaluation Points", "setting": "[1]; concentration 1:25000", "value": 1.8}, {"measurement": "Average Value of Evaluation Points", "setting": "[1]; concentration 1:50000", "value": 1.0}, {"measurement": "Average Value of Evaluation Points", "setting": "[1]; concentration 1:100000", "value": 0.0}, {"measurement": "Relative Sweetening Power (Saccharose = 1)", "setting": "[2]; [8]", "value": 500}, {"measurement": "Animals which died within the observation time, 1 day", "setting": "mouse; 5000 mgm/kg oral", "value": 0, "unit": "animals"}, {"measurement": "Animals which died within the observation time, 7 days", "setting": "mouse; 5000 mgm/kg oral", "value": 0, "unit": "animals"}, {"measurement": "release of base substitutions", "setting": "[4]; S. typhimurium TA 1535, TA 100", "value": "do not release base substitutions"}, {"measurement": "release of frame-shift mutations", "setting": "[4]; S. typhimurium TA 1537, TA 1538, TA 98", "value": "do not release"}, {"measurement": "increase in the spontaneous mutation rate", "setting": "[4]; Salmonella strains, C 0.1 and 0.5 mgm/plate, D 5-20 mg/plate, with and without activating system", "value": "did not lead to an increase"}, {"measurement": "colonies counted on the substance plates", "setting": "[4]; all test strains", "value": "within the spontaneous range"}, {"measurement": "effect of the enzyme induction and of the activating fraction on the reverse mutation rate", "setting": "[4]; all tested strains, S-9 of normal and Aroclor 1254 induced rats", "value": "not detectable"}, {"measurement": "mutagenic potential", "setting": "[4]; conclusion over all tested strains", "value": "do not indicate a mutagenic potential"}, {"measurement": "release of base substitutions", "setting": "[5]; E. coli WP2 (P)", "value": "do not release base substitutions"}, {"measurement": "increase in the spontaneous mutation rate", "setting": "[5]; E. coli WP 2 (P), C 0.1 and 0.5 mgm/plate, D 5-20 mg/plate, with and without activating system", "value": "did not lead to an increase"}, {"measurement": "inhibition of the microorganism growth", "setting": "microorganism growth", "value": "did not show any inhibition"}]}, {"compound": "Cc1sc2c(c1C)C(=O)NS2(=O)=O.[Na]", "note": "[F, 4,5-Dimethyl-thieno[3,2-d]isothiazole-3(2H)-one-1,1-dioxide sodium salt]", "values": [{"measurement": "Average Value of Evaluation Points", "setting": "[1]; concentration 1:50000", "value": 2.0}, {"measurement": "Average Value of Evaluation Points", "setting": "[1]; concentration 1:100000", "value": 1.4}, {"measurement": "Average Value of Evaluation Points", "setting": "[1]; concentration 1:200000", "value": 0.2}, {"measurement": "Relative Sweetening Power (Saccharose = 1)", "setting": "[2]; [8]", "value": 1000}]}, {"compound": "O=C1NS(=O)(=O)c2sccc21", "note": "[X, Thieno[3,2-d]isothiazole-3(2H)-one-1,1-dioxide]", "values": [{"measurement": "Relative Sweetening Power (Saccharose = 1)", "setting": "[6]", "value": 350}]}, {"compound": "Cc1cc2c(s1)S(=O)(=O)NC2=O", "note": "[B, 5-Methyl-thieno[3,2-d]isothiazole-3(2H)-one-1,1-dioxide]", "values": [{"measurement": "Average Value of Evaluation Points", "setting": "[1]; concentration 1:25000", "value": 2.2}, {"measurement": "Average Value of Evaluation Points", "setting": "[1]; concentration 1:50000", "value": 1.4}, {"measurement": "Average Value of Evaluation Points", "setting": "[1]; concentration 1:100000", "value": 0.2}, {"measurement": "Relative Sweetening Power (Saccharose = 1)", "setting": "[2]; [8]", "value": 550}, {"measurement": "Animals which died within the observation time, 1 day", "setting": "mouse; 5000 mgm/kg oral", "value": 0, "unit": "animals"}, {"measurement": "Animals which died within the observation time, 7 days", "setting": "mouse; 5000 mgm/kg oral", "value": 0, "unit": "animals"}]}, {"compound": "Cc1sc2c(c1C)C(=O)NS2(=O)=O", "note": "[E, 4,5-Dimethyl-thieno[3,2-d]isothiazole-3(2H)-one-1,1-dioxide]", "values": [{"measurement": "Average Value of Evaluation Points", "setting": "[1]; concentration 1:50000", "value": 2.2}, {"measurement": "Average Value of Evaluation Points", "setting": "[1]; concentration 1:100000", "value": 1.6}, {"measurement": "Average Value of Evaluation Points", "setting": "[1]; concentration 1:200000", "value": 0.4}, {"measurement": "Relative Sweetening Power (Saccharose = 1)", "setting": "[2]; [8]", "value": 1050}, {"measurement": "Animals which died within the observation time, 1 day", "setting": "mouse; 1000 mgm/kg oral", "value": 0, "unit": "animals"}, {"measurement": "Animals which died within the observation time, 7 days", "setting": "mouse; 1000 mgm/kg oral", "value": 0, "unit": "animals"}]}, {"compound": "O=S(=O)(O)NC1CCCCC1", "note": "[U, Cyclamate, reference compound]", "values": [{"measurement": "Average Value of Evaluation Points", "setting": "[1]; concentration 1:12500", "value": 0.4}, {"measurement": "Relative Sweetening Power (Saccharose = 1)", "setting": "[2]", "value": 60}, {"measurement": "safety as sweetening agent", "setting": "[7]", "value": "not entirely safe"}]}, {"compound": "O=C1NS(=O)(=O)c2ccccc21.[Na]", "note": "[W, Saccharin sodium, reference compound]", "values": [{"measurement": "Average Value of Evaluation Points", "setting": "[1]; concentration 1:25000", "value": 2.2}, {"measurement": "Average Value of Evaluation Points", "setting": "[1]; concentration 1:50000", "value": 1.2}, {"measurement": "Average Value of Evaluation Points", "setting": "[1]; concentration 1:100000", "value": 0.0}, {"measurement": "Relative Sweetening Power (Saccharose = 1)", "setting": "[2]; [8]", "value": 550}]}]}
